Reference: patent publication US9517214B2, “Fat-based food products” (IP Science Limited, priority 2011, dated 2016)

What was measured:
[1] = tested on: clinically healthy volunteers with hypercholesterolaemia; experiment: Serum lipids (TC, TG, HDL, LDL) in trial of lycopene, butter and L-Butter; format: in vivo, human; conditions: after one week of administration of 7 mg of lycopene
Description: (§1) Clinically Healthy Volunteers with Hypercholesterolaemia
(§2) Commercially available butter (President, Lactalis) was melted at 40° C. The melted butter was blended with tomato oleoresin, containing 15% of lycopene (Lyc-O-Mato), in the ratio of […] of oleoresin to 30 g of the butter in a thermo-controlled mixer. The mixture was blended for 10 minutes and cooled down to the room temperature. The butter was then divided into daily 30 g portions. Butter was stored at 4° C. until use. Freshly made batches of the L-Butter were made weekly.
(§3) Each portion of 30 g butter contained 47.1 mg of tomato oleoresin or about 7 mg of lycopene.
(§4) The melting and mixing procedures were performed as described above using the same commercially available butter, but instead of tomato oleoresin, sunflower oil (Flora™) was used.
(§5) 47.1 mg of tomato oleoresin was pre-dissolved in ethanol and mixed with Whey Protein as described in Richelle et al (2002) J. Nutr 132 404-408, WO01/091588 and US2002/01072992. Then the mixture was placed into gelatine capsules.
(§6) 18 clinically healthy volunteers, 9 males and 9 females, age 45-69, were recruited for this study.
(§7) • elevated total serum cholesterol above 200 mg/dL and/or triglycerides above 150 mg/dL, • all patients were naive for any lipid-lowering medications, • willing participate in the study. […]
(§8) All blood samples were coded. Their lab analysis and reading of the results were blinded. […]

[2] = tested on: clinically healthy volunteers with hypercholesterolaemia; experiment: Antibody inflammatory marker Px-IgG in the same trial; format: in vivo, human; conditions: 7 mg lycopene daily, capsules; Baseline; individual volunteers
Description: as §1, §2, §3, §4, §5, §6, §7, §8

[3] = daily consumption of 6-10 mg lycopene; cited from earlier work

Question: With `CC(C)=CCC/C(C)=C/C=C/C(C)=C/C=C/C(C)=C/C=C/C=C(C)/C=C/C=C(C)/C=C/C=C(\C)CCC=C(C)C` [Lycopene] as the compound, how does the “changes in levels of elevated cholesterol, triglycerides and markers of oxidative damage or inflammation” value [1] read?
Answer: not any changes

Question: And the Px-IgG [2]?
Answer: 0.765 U/ml

Question: What about the “effect on cholesterol or other blood lipids” value [3] of the same compound?
Answer: no effect
